Key:
NLRP3 = target: T1, NLRP3 (Homo sapiens, UniProt Q96P20); experiment: PBMC assay: IL-1β levels in supernatant of LPS-stimulated human PBMCs (MSD); format: cell-based; conditions: 30 min compound pre-incubation, 100 ng/ml LPS for 6 hrs, IL-1β in supernatant, read-out: IL-1B IC50
T1 construct: human peripheral blood mononuclear cells (PBMCs) were isolated from blood; endogenous in cells; host or cells: primary human PBMCs from healthy donors
Experimental: The activity of a compound according to the present invention can be assessed by in vitro methods.
Peripheral venous blood was collected from healthy individuals and human peripheral blood mononuclear cells (PBMCs) were isolated from blood by Ficoll-Histopaque (Sigma-Aldrich, A0561) density gradient centrifugation. After isolation, PBMCs were stored in liquid nitrogen for later use. Upon thawing, PBMC cell viability was determined in growth medium (RPMI media supplemented with 10% fetal bovine serum, 1% Pen-Strep and 1% L-glutamine). […] PBMCs were added at a density of 7.5×10^4 cells per well and incubated for 30 min in a 5% CO2 incubator at 37° C. LPS stimulation was performed by addition of 100 ng/ml LPS (final concentration, Invivogen, tlrl-smlps) for 6 hrs followed by collection of cellular supernatant and the analysis of IL-1β […] and TNF cytokines levels […] via MSD technology according to manufacturers' guidelines (MSD, K15A0H).

TNF = experiment: PBMC assay: TNF cytokine levels in supernatant of LPS-stimulated human PBMCs (MSD); format: cell-based; conditions: Homo sapiens, PBMC, 30 min compound pre-incubation, 100 ng/ml LPS for 6 hrs
Experimental: Peripheral venous blood was collected from healthy individuals and human peripheral blood mononuclear cells (PBMCs) were isolated from blood by Ficoll-Histopaque (Sigma-Aldrich, A0561) density gradient centrifugation. After isolation, PBMCs were stored in liquid nitrogen for later use. Upon thawing, PBMC cell viability was determined in growth medium (RPMI media supplemented with 10% fetal bovine serum, 1% Pen-Strep and 1% L-glutamine). Compounds were spotted in a 1:3 serial dilution in DMSO and diluted to the final concentration in 30 μl medium in 96 well plates (Falcon, 353072). PBMCs were added at a density of 7.5×10^4 cells per well and incubated for 30 min in a 5% CO2 incubator at 37° C. LPS stimulation was performed by addition of 100 ng/ml LPS (final concentration, Invivogen, tlrl-smlps) for 6 hrs followed by collection of cellular supernatant and the analysis of IL-1β […] and TNF cytokines levels […] via MSD technology according to manufacturers' guidelines (MSD, K15A0H).
The IC50 values (for IL-1β) and EC50 values (TNF) were obtained on compounds of the invention/examples, and are depicted in the following table: […]

T1 sequence (Q96P20 whole entry): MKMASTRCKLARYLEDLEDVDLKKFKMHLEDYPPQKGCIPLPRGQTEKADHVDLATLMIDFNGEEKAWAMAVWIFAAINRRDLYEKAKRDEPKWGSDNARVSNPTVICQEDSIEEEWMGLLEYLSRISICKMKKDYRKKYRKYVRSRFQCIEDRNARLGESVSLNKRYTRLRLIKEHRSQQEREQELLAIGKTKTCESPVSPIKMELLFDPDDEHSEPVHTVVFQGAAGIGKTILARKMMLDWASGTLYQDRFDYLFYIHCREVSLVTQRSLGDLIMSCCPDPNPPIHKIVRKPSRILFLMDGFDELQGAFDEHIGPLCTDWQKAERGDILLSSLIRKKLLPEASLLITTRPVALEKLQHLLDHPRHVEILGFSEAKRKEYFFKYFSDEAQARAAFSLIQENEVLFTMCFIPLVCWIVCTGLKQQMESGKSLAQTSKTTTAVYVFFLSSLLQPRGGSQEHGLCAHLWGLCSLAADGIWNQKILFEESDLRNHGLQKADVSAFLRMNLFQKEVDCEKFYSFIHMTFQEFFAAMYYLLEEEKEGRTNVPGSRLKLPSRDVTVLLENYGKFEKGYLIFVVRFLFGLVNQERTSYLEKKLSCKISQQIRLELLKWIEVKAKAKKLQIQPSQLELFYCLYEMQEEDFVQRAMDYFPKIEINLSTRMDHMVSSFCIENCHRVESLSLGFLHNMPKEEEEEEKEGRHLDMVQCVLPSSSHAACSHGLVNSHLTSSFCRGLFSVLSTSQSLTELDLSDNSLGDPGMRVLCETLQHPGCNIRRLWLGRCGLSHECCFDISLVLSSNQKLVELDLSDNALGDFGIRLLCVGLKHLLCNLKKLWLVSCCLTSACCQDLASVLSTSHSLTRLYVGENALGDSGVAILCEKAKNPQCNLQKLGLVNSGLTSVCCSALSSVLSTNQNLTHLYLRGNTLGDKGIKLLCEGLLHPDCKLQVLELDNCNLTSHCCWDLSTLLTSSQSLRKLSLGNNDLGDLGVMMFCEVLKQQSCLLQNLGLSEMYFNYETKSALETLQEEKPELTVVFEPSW

Row | SMILES | IC50 (NLRP3) [nM] | EC50 (TNF) [nM] | melting point [°C]
1 | CC(C)c1nn(CC(=O)Nc2cc(Br)c3nncn3c2)c(=O)c2sc(C3CC3)nc12 [F-41, N-(8-bromo-[1,2,4]triazolo[4,3-a]pyridin-6-yl)-2-(2-cyclopropyl-4-isopropyl-7-oxothiazolo[4,5-d]pyridazin-6(7H)-yl)acetamide] | 265 | > 20000 | 280.9
2 | CCc1nc2c(C(C)C)nn(CC(=O)Nc3ccnnc3)c(=O)c2s1 [F-10] | 274 | 18600 | 186.5
3 | CC(C)c1nn(CC(=O)Nc2ccnnc2)c(=O)c2sc(C3CC3)nc12 [F-13] | 100 | 6590 | 195.2
4 | CC(C)c1nn(CC(=O)Nc2ccn3ccnc3n2)c(=O)c2sc(C3CC3)nc12 [F-34] | 692 | 8260 | 258
5 | CC(C)c1nn(CC(=O)Nc2cc(C(F)(F)F)ncn2)c(=O)c2sc(C3CC3)nc12 [F-50] | > 20000 | > 20000 | 172
6 | CC(C)c1nn(CC(=O)N[C@H]2C[C@@](C)(O)C2)c(=O)c2sc(C(F)(F)F)nc12 [F-21] | 469 | > 20000 | 181.4
7 | CCc1nc2c(C(C)C)nn(CC(=O)N[C@H]3C[C@@](C)(O)C3)c(=O)c2s1 [F-11] | 351 | 19400 | 159.2
8 | CC(C)c1nn(CC(=O)Nc2cc(Cl)c(=O)n(C(F)F)c2)c(=O)c2sc(C3CC3)nc12 [F-48] | 1450 | 17900 | 206.7
9 | O=C(Cn1nc(C2CC2)c2nc(C3CC3)sc2c1=O)Nc1ccc2nncn2c1 [F-26] | 126 | 10800 | 285
10 | CCc1nc2c(C(C)C)nn(CC(=O)Nc3ccncn3)c(=O)c2s1 [F-8, 2-(2-ethyl-4-isopropyl-7-oxo-thiazolo[4,5-d]pyridazin-6-yl)-N-pyrimidin-4-yl-acetamide] | 181 | 9200 | 186
11 | Cc1nc2ccc(NC(=O)Cn3nc(C(C)C)c4nc(C5CC5)sc4c3=O)cn2n1 [F-30] | 237 | 19600 | 204.6
12 | CC(C)c1nn(CC(=O)Nc2ccc3cncn3c2)c(=O)c2sc(C3CC3)nc12 [F-28] | 97 | 6360 | 195.8
13 | CC(C)c1nn(CC(=O)Nc2ccc(=O)n(C)c2)c(=O)c2sc(C3CC3)nc12 [F-46] | 137 | > 20000 | 240.9
14 | CC(C)c1nn(CC(=O)Nc2cc(F)[nH]c(=O)c2)c(=O)c2sc(C3CC3)nc12 [F-55] | 443 | > 20000 | 292.7
15 | CC(C)c1nn(CC(=O)Nc2ccc(=O)n(C)n2)c(=O)c2sc(C3CC3)nc12 [F-16] | 81 |  | 233.3
16 | Cc1nnc2cc(NC(=O)Cn3nc(C(C)C)c4nc(C5CC5)sc4c3=O)ccn12 [F-35] | 1190 | > 20000 | 282.4
17 | CC(C)c1nn(CC(=O)Nc2ccc3nccn3n2)c(=O)c2sc(C3CC3)nc12 [F-59] | 69 | 2160 | 201.7
18 | CC(C)c1nn(CC(=O)Nc2ccc3nnc(C(F)F)n3c2)c(=O)c2sc(C3CC3)nc12 [F-39] | 446 | 13100 | 216.3

Row | SMILES | IC50 (NLRP3) [nM] | EC50 (TNF) [nM] | melting point [°C]
19 | Cc1nnc2ccc(NC(=O)Cn3nc(C(C)C)c4nc(C5CC5)sc4c3=O)nn12 [F-56] | 110 | 10800 | 250
20 | CC(C)c1nn(CC(=O)Nc2ccc3nncn3c2)c(=O)c2sc(C(F)(F)F)nc12 [F-22] | 332 | > 20000 | 261.8
21 | CC(C)c1nn(CC(=O)Nc2ccc3nncn3n2)c(=O)c2sc(C3CC3)nc12 [F-57] | 19 | 4890 | 245.4
22 | CC(C)c1nn(CC(=O)Nc2ccn3ncnc3c2)c(=O)c2sc(C3CC3)nc12 [F-38] | 354 | 15700 | 203.8
23 | CCNc1nc2c(C(C)C)nn(CC(=O)N[C@H]3C[C@@](C)(O)C3)c(=O)c2s1 [F-18] | 128 | > 20000 | 216.6
24 | CC(C)c1nn(CC(=O)Nc2ccc3ncoc3c2)c(=O)c2sc(C3CC3)nc12 [F-43] | 102 | 9620 | 194.9
25 | O=C(Cn1nc(C2CC2)c2nc(C3CC3)sc2c1=O)Nc1ccc2nncn2n1 [F-54] | 150 | ~17300 | 248.3
26 | CC(C)c1nn(CC(=O)Nc2ccc3nnc(C(F)(F)F)n3n2)c(=O)c2sc(C3CC3)nc12 [F-49, 2-(2-cyclopropyl-4-isopropyl-7-oxo-thiazolo[4,5-d]pyridazin-6-yl)-N-[3-(trifluoromethyl)-[1,2,4]triazolo[4,3-b]pyridazin-6-yl]acetamide] | 462 | > 20000 | 223.8
27 | CC(C)c1nn(CC(=O)Nc2cnc3nccn3c2)c(=O)c2sc(C3CC3)nc12 [F-37] | 247 | > 20000 | 147.1
28 | CC(C)c1nn(CC(=O)N[C@H]2C[C@@](C)(O)C2)c(=O)c2sc(C3CC3)nc12 [F-14] | 55 | 18200 | 190.5
29 | CC(C)c1nn(CC(=O)Nc2ccn3ccnc3c2)c(=O)c2sc(C3CC3)nc12 [F-29] | 155 | 12300 | 215.5
30 | C[C@]1(O)C[C@@H](NC(=O)Cn2nc(C3CC3)c3nc(C4CC4)sc3c2=O)C1 [F-27] | 780 | > 20000 | 198.2
31 | Cn1nc(NC(=O)Cn2nc(C3CC3)c3nc(C4CC4)sc3c2=O)ccc1=O [F-25] | 715 | ~12600 | 219.9
32 | CC(C)c1nn(CC(=O)Nc2ccc(C(F)F)nc2)c(=O)c2sc(C3CC3)nc12 [F-45] | 907 | 17400 | 170.1
33 | CCc1nc2c(C(C)C)nn(CC(=O)Nc3ccc4nncn4c3)c(=O)c2s1 [F-9] | 95 | 18000 | 284.6
34 | CC(C)c1nn(CC(=O)Nc2ccc3nccn3n2)c(=O)c2sc(C(C)(F)F)nc12 [F-53] | 215 | 11900 | 206.5
35 | CC(C)c1nn(CC(=O)Nc2ccc3nncn3c2)c(=O)c2sc(C3COC3)nc12 [F-24] | 567 | > 20000 | 151.3

Reference: patent US20240043450A1, “NEW COMPOUND” (JANSSEN PHARMACEUTICA NV, priority 2020, published 2024)
